Key:
[1] = 293.15 K, 101.33 kPa, Liquid
[2] = refractive index (Na D-line) (dimensionless); settings: 293.15 K; 101.33 kPa; Liquid; Standard Abbe refractometry
[3] = excess molar enthalpy (molar enthalpy of mixing); xn = mol fraction of the nth substance listed; settings: 101 kPa, Liquid, Flow calorimetry

CC#N [acetonitrile]
Settings | mass density [kg/m3]
[1], Vibrating tube method | 784.6

Settings | refractive index
[2] | 1.3441

CCCCCCCO [heptan-1-ol]
Settings | mass density [kg/m3] | refractive index
[1] | 822.3 | –
[2] | – | 1.4245

CCCCCCCCO [octan-1-ol] + CC#N
[3]
Settings | excess molar enthalpy [kJ/mol]
298.15 K, x1 = 0.0476 | 0.675
298.15 K, x1 = 0.0971 | 1.18
298.15 K, x1 = 0.1479 | 1.57
298.15 K, x1 = 0.1998 | 1.88
298.15 K, x1 = 0.2521 | 2.1
298.15 K, x1 = 0.3044 | 2.26
298.15 K, x1 = 0.3562 | 2.37
298.15 K, x1 = 0.407 | 2.42
298.15 K, x1 = 0.471 | 2.44
298.15 K, x1 = 0.5316 | 2.37
298.15 K, x1 = 0.5882 | 2.25
298.15 K, x1 = 0.6879 | 1.92
298.15 K, x1 = 0.7685 | 1.54
298.15 K, x1 = 0.802 | 1.37
298.15 K, x1 = 0.8567 | 1.03
298.15 K, x1 = 0.8975 | 0.738
298.15 K, x1 = 0.9375 | 0.491
313.15 K, x1 = 0.063 | 0.859
313.15 K, x1 = 0.1288 | 1.51
313.15 K, x1 = 0.1966 | 2.04
313.15 K, x1 = 0.2652 | 2.38
313.15 K, x1 = 0.3335 | 2.57
313.15 K, x1 = 0.4003 | 2.65
313.15 K, x1 = 0.4647 | 2.66
313.15 K, x1 = 0.5259 | 2.6
313.15 K, x1 = 0.583 | 2.48
313.15 K, x1 = 0.6357 | 2.3
313.15 K, x1 = 0.6837 | 2.1
313.15 K, x1 = 0.7268 | 1.89
313.15 K, x1 = 0.7653 | 1.69
313.15 K, x1 = 0.7992 | 1.5
313.15 K, x1 = 0.8288 | 1.32
313.15 K, x1 = 0.8762 | 0.987
313.15 K, x1 = 0.9349 | 0.517
323.15 K, x1 = 0.0633 | 0.912
323.15 K, x1 = 0.1295 | 1.66
323.15 K, x1 = 0.1975 | 2.26
323.15 K, x1 = 0.2663 | 2.56
323.15 K, x1 = 0.3347 | 2.74
323.15 K, x1 = 0.4017 | 2.81
323.15 K, x1 = 0.4661 | 2.8
323.15 K, x1 = 0.5273 | 2.72
323.15 K, x1 = 0.5844 | 2.59
323.15 K, x1 = 0.637 | 2.41
323.15 K, x1 = 0.6849 | 2.21
323.15 K, x1 = 0.7279 | 2
323.15 K, x1 = 0.7663 | 1.79
323.15 K, x1 = 0.8001 | 1.6
323.15 K, x1 = 0.8296 | 1.4
323.15 K, x1 = 0.8768 | 1.04
323.15 K, x1 = 0.9352 | 0.549

CCCCCCCO [heptan-1-ol] + CC#N
[3]
Settings | excess molar enthalpy [kJ/mol]
298.15 K, x1 = 0.0529 | 0.589
298.15 K, x1 = 0.1128 | 1.09
298.15 K, x1 = 0.1738 | 1.53
298.15 K, x1 = 0.2352 | 1.82
298.15 K, x1 = 0.2962 | 2.03
298.15 K, x1 = 0.3561 | 2.16
298.15 K, x1 = 0.4143 | 2.22
298.15 K, x1 = 0.4701 | 2.23
298.15 K, x1 = 0.5231 | 2.19
298.15 K, x1 = 0.573 | 2.11
298.15 K, x1 = 0.6194 | 2.01
298.15 K, x1 = 0.6623 | 1.88
298.15 K, x1 = 0.7015 | 1.74
298.15 K, x1 = 0.7692 | 1.46
298.15 K, x1 = 0.8038 | 1.27
298.15 K, x1 = 0.8621 | 0.923
298.15 K, x1 = 0.9271 | 0.485
313.15 K, x1 = 0.0698 | 0.777
313.15 K, x1 = 0.1417 | 1.37
313.15 K, x1 = 0.2146 | 1.8
313.15 K, x1 = 0.2872 | 2.11
313.15 K, x1 = 0.3584 | 2.28
313.15 K, x1 = 0.427 | 2.35
313.15 K, x1 = 0.4923 | 2.35
313.15 K, x1 = 0.5533 | 2.29
313.15 K, x1 = 0.6096 | 2.17
313.15 K, x1 = 0.6608 | 2.01
313.15 K, x1 = 0.707 | 1.83
313.15 K, x1 = 0.7482 | 1.64
313.15 K, x1 = 0.7845 | 1.46
313.15 K, x1 = 0.8163 | 1.27
313.15 K, x1 = 0.8439 | 1.09
313.15 K, x1 = 0.8642 | 0.955
313.15 K, x1 = 0.9283 | 0.505
323.15 K, x1 = 0.0704 | 0.795
323.15 K, x1 = 0.1429 | 1.46
323.15 K, x1 = 0.2161 | 1.96
323.15 K, x1 = 0.2891 | 2.26
323.15 K, x1 = 0.3605 | 2.4
323.15 K, x1 = 0.4293 | 2.45
323.15 K, x1 = 0.4946 | 2.43
323.15 K, x1 = 0.5555 | 2.37
323.15 K, x1 = 0.6117 | 2.26
323.15 K, x1 = 0.6629 | 2.08
323.15 K, x1 = 0.7089 | 1.89
323.15 K, x1 = 0.7499 | 1.69
323.15 K, x1 = 0.786 | 1.5
323.15 K, x1 = 0.8177 | 1.32
323.15 K, x1 = 0.8451 | 1.14
323.15 K, x1 = 0.8642 | 1.01
323.15 K, x1 = 0.9283 | 0.558

CCCCCCCCO [octan-1-ol]
Settings | mass density [kg/m3] | refractive index
[1] | 825.8 | –
[2] | – | 1.4293

From the NIST ThermoML archive (doi:10.1016/j.jct.2008.01.017)
